Structures can show the parent of a compound that is named as a salt.
What was measured:
serotonin 1A receptor = target: T1, serotonin 1A receptor (Rattus norvegicus, UniProt P19327); assay: Binding test on [3H] 8-hydroxy-dipropylaminotetralin, hippocampus receptor fraction; set-up: species or system SD rats; details: rat hippocampus receptor fraction, 0.5 nM [3H] 8-OH-DPAT, room temperature 30 min; read-out: 5HT1
T1 construct: To the receptor fraction of the hippocampus were added a test compound and 0.5 nM of [^3H]; 8-hydroxy-dipropylaminotetralin; from tissue; host or cells: rat hippocampus membrane fraction
T1 sequence (P19327 1-422): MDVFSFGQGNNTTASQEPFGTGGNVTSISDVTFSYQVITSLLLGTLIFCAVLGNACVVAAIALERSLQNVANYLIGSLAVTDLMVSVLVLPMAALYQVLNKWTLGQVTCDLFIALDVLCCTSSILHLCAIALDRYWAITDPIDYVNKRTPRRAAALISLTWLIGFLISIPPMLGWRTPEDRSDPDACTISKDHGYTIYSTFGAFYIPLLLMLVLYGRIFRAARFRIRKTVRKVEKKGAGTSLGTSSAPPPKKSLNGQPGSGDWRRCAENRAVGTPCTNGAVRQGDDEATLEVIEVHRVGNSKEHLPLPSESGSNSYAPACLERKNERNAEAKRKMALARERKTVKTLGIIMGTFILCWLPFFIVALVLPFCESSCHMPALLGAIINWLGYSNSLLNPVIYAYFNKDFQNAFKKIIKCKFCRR

serotonin 2 receptor = target: T2, serotonin 2 receptor (Rattus norvegicus, UniProt P14842); assay: Binding test on [3H] ketanserin, cerebral cortex receptor fraction; set-up: species or system SD rats; details: 0.3 nM [3H] ketanserin, 37° C. 15 min, read-out: 5HT2
T2 construct: To the receptor fraction of the cerebral cortex were added a test compound and 0.3 nM of [^3H] ketanserin; from tissue; host or cells: rat cerebral cortex membrane fraction
T2 sequence (P14842 whole entry): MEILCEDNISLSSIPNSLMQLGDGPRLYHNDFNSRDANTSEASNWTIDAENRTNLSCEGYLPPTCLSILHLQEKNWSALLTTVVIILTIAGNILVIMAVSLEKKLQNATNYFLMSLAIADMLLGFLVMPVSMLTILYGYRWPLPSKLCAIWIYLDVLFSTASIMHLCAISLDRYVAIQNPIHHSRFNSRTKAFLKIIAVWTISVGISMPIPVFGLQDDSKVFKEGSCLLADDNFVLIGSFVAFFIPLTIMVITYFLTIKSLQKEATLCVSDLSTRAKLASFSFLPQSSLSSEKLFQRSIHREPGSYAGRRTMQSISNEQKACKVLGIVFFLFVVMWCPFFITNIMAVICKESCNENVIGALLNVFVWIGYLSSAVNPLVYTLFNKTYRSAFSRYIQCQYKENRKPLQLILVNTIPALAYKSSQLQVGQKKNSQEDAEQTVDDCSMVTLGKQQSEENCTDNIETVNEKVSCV

Row | Ki (serotonin 1A receptor) [nM] | Ki (serotonin 2 receptor) [nM] | Structure (SMILES)
1 | 60 | 11 | CCN1CCN(c2nc(-c3ccc(OC)cc3)cc3ccccc23)CC1 [Example 10, 1-(4-Ethylpiperazin-1-yl)-3-(4-methoxyphenyl)isoquinoline]
2 | 10.7 | 23.8 | CCN1CCN(c2nc(-c3csc(CO)c3)cc3ccccc23)CC1 [Example 161, 1-(1-ethylpiperazin-4-yl)-3-(2-hydroxymethylthiophen-4-yl)isoquinoline dihydrochloride]
3 | 6.3 | 10 | CCCCNC(=O)Cc1ccc(-c2cc3ccccc3c(N3CCN(CC)CC3)n2)cc1 [Example 89, 3-(4-Butylaminocarbonylmethylphenyl)-1-(4-ethylpiperazin-1-yl)isoquinoline Hydrochloride]
4 | 31.3 | 3.4 | CCN1CCN(c2nc(-c3ccc([C@@H]4C[C@H](O)CCO4)cc3)cc3ccccc23)CC1 (relative stereo) [Example 401, 1-(4-Ethylpiperazin-1-yl)-3-[4-(cis-4-Hydroxytetrahydropyran-2-yl)Phenyl]Isoquinoline Dihydrochloride]
5 | 2.1 | 24.2 | CCN1CCN(c2nc(-c3ccc(S(=O)(=O)N4CCCC4)cc3)cc3ccccc23)CC1 [Example 356, 1-(4-ethylpiperazin-1-yl)-3-[4-(pyrrolidin-1-yl)sulfonylphenyl]isoquinoline dihydrochloride]
6 | 25.1 | 19.2 | CCN1CCN(c2nc(-c3ccc(CCO)s3)cc3ccccc23)CC1 [Example 163, 1-(1-ethylpiperazin-4-yl)-3-[2-(2-hydroxyethyl)thiophen-5-yl]isoquinoline dihydrochloride]
7 | 6.89 | 15.2 | CCN1CCN(c2nc(-c3ccc(S(=O)(=O)CC)cc3)cc3ccsc23)CC1 [Example 450, 7-(4-ethylpiperazin-1-yl)-5-(4-ethanesulfonylphenyl)thieno[2,3-c]pyridine dihydrochloride]
8 | 3 | 1.3 | CCN1CCN(c2nc(-c3ccc(S(=O)(=O)NCCOC)cc3)cc3ccccc23)CC1 [Example 354, 1-(4-ethylpiperazin-1-yl)-3-{4-[N-(2-methoxyethyl)sulfamoyl]phenyl}isoquinoline dihydrochloride]
9 | 76.4 | 1.44 | CN1CCN(c2nc(-c3ccc(OCCO)cc3)cc3sccc23)CC1 [Example 279, 4-(4-methylpiperazin-1-yl)-6-[4-(2-hydroxyethoxy)phenyl]thieno[3,2-c]pyridine hydrochloride]
10 | 5.7 | 8.9 | CCN1CCN(c2nc(-c3ccc(S(=O)(=O)N4CCSCC4)cc3)cc3ccccc23)CC1 [Example 76, 3-[(4-Thiomorpholinyl)Sulfonylphenyl]-1-(4-Ethylpiperazin-1-Yl)Isoquinoline Hydrochloride]
11 | 43.3 | 1.44 | CCN1CCN(c2nc(-c3ccc(CCC(C)(C)O)cc3)cc3sccc23)CC1 [Example 291, 4-[4-ethylpiperazin-1-yl)-6-[4-(3-hydroxy-3-methylbutyl)phenyl]thieno[3,2-c]pyridine dihydrochloride]
12 | 5.8 | 23 | CCN1CCN(c2nc(-c3ccc(CCNS(=O)(=O)CC)cc3)cc3ccccc23)CC1 [Example 79, 3-(4-Ethylsulfonylaminoethylphenyl)-1-(4-Ethylpiperazin-1-Yl)Isoquinoline Hydrochloride]
13 | 3.5 | 0.61 | CCN1CCN(c2nc(-c3ccc(S(=O)(=O)NC4CC4)cc3)cc3ccccc23)CC1 [Example 363, 1-(4-ethylpiperazin-1-yl)-3-[4-(N-cyclopropylsulfamoyl)phenyl]isoquinoline dihydrochloride]
14 | 133 | 7.1 | CCN1CCN(c2nc(-c3ccc(OC4CCCCC4O)cc3)cc3ccccc23)CC1 (centres unmarked) [Example 426, 1-(4-ethylpiperazin-1-yl)-3-[4-(2-hydroxycyclohexyloxy)phenyl]isoquinoline Hydrochloride]
15 | 18.8 | 1.07 | CCN1CCN(c2nc(-c3ccc(O[C@@H](C)CO)cc3)cc3ccccc23)CC1 [Example 404, 1-(4-ethylpiperazin-1-yl)-3-[4-(2-hydroxy-1-methylethoxy)phenyl]isoquinoline Dihydrochloride]
16 | 40.1 | 45.6 | CCN1CCN(c2nc(-c3ccc(OCCO)c(C(C)C)c3)cc3ccccc23)CC1 [Example 41, 3-[3-isopropyl-4-(2-hydroxyethoxy)phenyl]-1-(4-ethylpiperazin-1-yl)isoquinoline hydrochloride]
17 | 160 | 22.4 | CCN1CCN(c2nc(-c3ccc(C(=O)CC(C)C)cc3)cc3ccsc23)CC1 [Example 272, 7-(1-ethylpiperazin-4-yl)-5-[4-(3-methylbutanoyl)phenyl]thieno[2,3-c]pyridine dihydrochloride]
18 | 22.2 | 3 | CCCC(=O)Nc1ccc(-c2cc3ccccc3c(N3CCN(CC)CC3)n2)cn1 [Example 128, 3-(2-propylcarbonylaminopyridin-5-yl)-1-(4-ethylpiperazin-1-yl)isoquinoline hydrochloride]
19 | 91.9 | 75.9 | CCN1CCN(c2nc(-c3cccc(OCCO)c3)cc3sccc23)CC1 [Example 284, 4-(1-ethylpiperazin-4-yl)-6-[3-(2-hydroxyethoxy)phenyl]thieno-[3,2-c]pyridine dihydrochloride]
20 | 50.3 | 40 | CCN1CCN(c2nc(-c3ccc([C@@H]4C[C@@H](O)CCO4)cc3)cc3ccsc23)CC1 (relative stereo) [Example 455, 7-(4-ethylpiperazin-1-yl)-5-[4-(trans-4-hydroxytetrahydropyran-2-yl)phenyl]thieno[2,3-c]pyridine dihydrochloride]
21 | 22.6 | 346 | CCNC(=O)c1ccc(-c2cc3ccsc3c(N3CCN(CC)CC3)n2)cc1 [Example 448, 7-(4-ethylpiperazin-1-yl)-5-[4-(N-ethylcarbamoyl)phenyl]thieno[2,3-c]pyridine dihydrochloride]
22 | 35 | 3.85 | CCN1CCN(c2nc(/C=C/c3ccc(OC)cc3)cc3ccccc23)CC1 [Example 190, 1-(1-Ethylpiperazin-4-Yl)-3-[Trans-2-(4-Methoxyphenyl)Ethenyl]Isoquinoline Dihydrochloride]

Row | Structure (SMILES) | Ki (serotonin 1A receptor) [nM] | Ki (serotonin 2 receptor) [nM]
23 | CCN1CCN(c2nc(-c3ccnc(OC)c3)cc3ccccc23)CC1 [Example 405, 1-(4-ethylpiperazin-1-yl)-3-(2-methoxypyridin-4-yl)isoquinoline] | 22.6 | 10.2
24 | CCN1CCN(c2nc(-c3ccnc(OCc4ccccc4)c3)cc3ccccc23)CC1 [406 2-Benzyloxy, 1-(4-ethylpiperazin-1-yl)-3-(2-benzyloxypyridin-4-yl)isoquinoline] | 46 | 88.1
25 | CCN1CCN(c2nc(-c3ccc(S(=O)(=O)CCCOC)cc3)cc3ccccc23)CC1 [Example 350, 1-(4-ethylpiperazin-1-yl)-3-{4-[(3-methoxypropyl)sulfonyl]phenyl}isoquinoline] | 2.6 | 16.7
26 | CCCN(C)C(=O)c1ccc(-c2cc3ccccc3c(N3CCN(CC)CC3)n2)cc1 [Example 381] | 11.1 | 27.3
27 | CCN1CCN(c2nc(CCCc3ccccc3OCCO)cc3ccccc23)CC1 [Example 110, 1-(1-Ethylpiperazin-4-yl)-3-[3-[2-(2-hydroxyethoxy)phenyl]propyl]isoquinoline] | 58.6 | 109
28 | CCN1CCN(c2nc(-c3ccc(CCC(C)O)nc3)cc3ccccc23)CC1 (centres unmarked) [Example 136, 1-(1-Ethylpiperazin-4-yl)-3-[2-(3-Hydroxybutyl)Pyridin-5-yl]Isoquinoline] | 3.7 | 11.6
29 | CCN1CCN(c2nc(-c3ccc(CCCO)cn3)cc3ccccc23)CC1 [Example 134, 1-(1-Ethylpiperazin-4-yl)-3-[5-(3-Hydroxypropyl)Pyridin-2-yl]Isoquinoline] | 4.9 | 12.4
30 | CCN1CCN(c2nc(-c3ccc(S(=O)(=O)CC)nc3)cc3ccccc23)CC1 [Example 130, 3-[(2-Ethylsulfonylpyridin)-5-yl]-1-(4-Ethylpiperazin-1-yl)Isoquinoline Hydrochloride] | 24.4 | 17
31 | CCN1CCN(c2nc(-c3ccc(C(F)CCO)cc3)cc3ccccc23)CC1 (centres unmarked) [Example 27, 1-(1-Ethylpiperazin-4-yl)-3-[4-(3-hydroxy-1-fluoropropyl)phenyl]isoquinoline] | 29.4 | 2.47
32 | CCN1CCN(c2nc(-c3ccc(OC(C)COC)nc3)cc3ccsc23)CC1 (centres unmarked) [Example 267, 5-[2-(2-methoxyethoxy-2-methyl)pyridin-5-yl]-7-(4-ethylpiperazin-1-yl)thieno[2,3-c]pyridine Hydrochloride] | 10.4 | 68.7
33 | CCN1CCN(c2nc(-c3ccc(N4CCOC4=O)cc3)cc3ccccc23)CC1 [Example 95, 3-[4-(3-Oxazolidinone)phenyl]-1-(4-ethylpiperazin-1-yl)isoquinoline Hydrochloride] | 7.8 | 21.2
34 | CCN1CCN(c2nc(N3CCN(c4ccccc4)CC3)cc3ccccc23)CC1 [Example 158, 1-(1-ethylpiperazin-4-yl)-3-(1-phenylpiperazin-4-yl)isoquinoline] | 0.41 | 1.08

Source: patent publication US6875761B2 (Eisai Co., Ltd., priority 1997, dated 2005)
